In patent US7507727B2, “Substituted quinobenzoxazine analogs and methods of using thereof” (Cylene Pharmaceuticals, Inc., priority 2003, dated 2009):
Converted amounts (≈) assume the structure as drawn. Where two headings read alike, the source gives them in different places.

Experiments:
CYP1A2 = CYP1A2 (Homo sapiens, UniProt P05177); assay: Cytochrome P450 inhibition assay; assay type: in vitro ADME
Procedure: (§1) Cytochrome P450 (CYP450) Inhibition Assay. […] The reactions were initiated by adding 100 μL of a pre-warmed enzyme/substrate solution to the reaction tubes. A zero time-point control reaction was prepared by adding 50 μL of acetonitrile to 100 μL of cofactor solution to inactivate the enzymes, then adding 100 μL of enzyme/substrate solution. A control reaction with no inhibitor was also prepared. After a suitable incubation at 37° C., the reactions were terminated by the addition of 50 μL of acetonitrile. The reactions were analyzed for the metabolite forms of the probe substrate using LC/MS/MS. Each assay was performed in duplicate.

CYP2C19 = CYP2C19 (Homo sapiens, UniProt P33261); assay: Cytochrome P450 inhibition assay; assay type: in vitro ADME
Procedure: as §1

CYP2C9 = CYP2C9 (Homo sapiens, UniProt P11712); assay: Cytochrome P450 inhibition assay; assay type: in vitro ADME
Procedure: as §1

CYP2D6 = CYP2D6 (Homo sapiens, UniProt P10635); assay: Cytochrome P450 inhibition assay; assay type: in vitro ADME
Procedure: as §1

CYP3A4 = CYP3A4 (Homo sapiens, UniProt P08684); assay: Cytochrome P450 inhibition assay; assay type: in vitro ADME
Procedure: as §1

c-MYC mRNA = c-MYC mRNA expression in tumor samples by QPCR; assay type: in vivo, mice; conditions: HCT-116
Procedure: CX-3543 was tested against a number of cancer xenograft models to determine the in vivo efficacy. HCT-116 and PC-3 tumor-bearing nu/nu or MiaPaCa tumor-bearing SCID mice were administered reference and testing compounds on schedules indicated in figure legends. Tumor measurements were taken with calipers every other day or twice a week starting from the first day of dosing and body weights were measured at the same time points. Tumor volumes were calculated from the standard formula, W^2×L/2. c-MYC mRNA expression was measured with QPCR from all tumor samples following the final dose. 18S ribosomal RNA was used as a housekeeper and also quantified with QPCR.

[1] = Pharmacokinetic/toxicokinetic evaluation in dogs; assay type: in vivo, beagle dogs; conditions: for Accumulation Ratio: Dose 5 to Dose 1 AUC(0-24), 1.2 mg/kg IV; for Tmax / AUC(0-t) / Cmax / half-life: iv, 1.2 mg/kg; for Tmax: median
Procedure: The study was conducted using three (3) test article and one (1) control article group. The control article was the solution (5% dextrose in water) used to dilute the test article prior to administration and was administered at the same volume as the high dose. The test article dosage levels for this study were approximately 12, 3.8, and 1.2 mg/kg. Test and control articles were administered once by intravenous (IV) infusion over approximately a one hour period on five consecutive days. Blood samples for test article blood level analysis was taken as follows (i.e., pk/tk sampling): approximately 1 mL of blood was taken from three male and three female dogs in the low dose group at approximately 20 minutes and 40 minutes from the start of the infusion, and then at the end of infusion (Time 0) and at 5, 10, 15, and 30 minutes, and 1, 2, 4, 8, 12, and 24 hours from the end of the infusion after the first and fifth doses. Also, prior to and immediately after Dose 1 and after Dose 5 for all animals, and for recovery animals prior to necropsy, approximately 5-10 second ECG tracings in a lead II configuration were obtained. Animals were terminated one (1) or 15 days after the last dose. Blood for hematology and clinical chemistry analysis was drawn pre-dose and prior to euthanasia at termination. Following euthanasia, a necropsy was performed to include collection of major organs for microscopic evaluation.
PK/TK: Blood samples for test article blood level analysis were taken. Approximately 1 mL of blood was taken from three males and three females in the low dose group at approximately 20 minutes and 40 minutes from the start of the infusion, and then at the end of infusion (Time 0) and at 5, 10, 15, and 30 minutes, and 1, 2, 4, 8, 12, and 24 hours from the end of the infusion after the first and fifth dose. Plasma (lithium heparin anticoagulant) samples were prepared and analyzed.

Formulated solubility = assay type: physicochemical

Sequence of CYP3A4 (P08684 whole entry): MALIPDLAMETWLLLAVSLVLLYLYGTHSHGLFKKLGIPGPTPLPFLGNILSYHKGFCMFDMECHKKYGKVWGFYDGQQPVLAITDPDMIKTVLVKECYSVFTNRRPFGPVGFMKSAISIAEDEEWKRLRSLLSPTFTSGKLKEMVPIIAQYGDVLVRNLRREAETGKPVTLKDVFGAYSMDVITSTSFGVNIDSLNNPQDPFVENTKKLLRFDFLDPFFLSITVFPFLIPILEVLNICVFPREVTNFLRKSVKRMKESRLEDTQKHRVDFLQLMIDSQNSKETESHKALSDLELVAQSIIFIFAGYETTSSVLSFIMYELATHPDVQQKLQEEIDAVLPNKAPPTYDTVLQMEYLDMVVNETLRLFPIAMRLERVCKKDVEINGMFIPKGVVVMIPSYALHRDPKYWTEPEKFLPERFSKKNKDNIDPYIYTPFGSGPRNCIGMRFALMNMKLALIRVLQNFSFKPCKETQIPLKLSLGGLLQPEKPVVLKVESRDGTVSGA
Sequence of CYP2C9 (P11712 whole entry): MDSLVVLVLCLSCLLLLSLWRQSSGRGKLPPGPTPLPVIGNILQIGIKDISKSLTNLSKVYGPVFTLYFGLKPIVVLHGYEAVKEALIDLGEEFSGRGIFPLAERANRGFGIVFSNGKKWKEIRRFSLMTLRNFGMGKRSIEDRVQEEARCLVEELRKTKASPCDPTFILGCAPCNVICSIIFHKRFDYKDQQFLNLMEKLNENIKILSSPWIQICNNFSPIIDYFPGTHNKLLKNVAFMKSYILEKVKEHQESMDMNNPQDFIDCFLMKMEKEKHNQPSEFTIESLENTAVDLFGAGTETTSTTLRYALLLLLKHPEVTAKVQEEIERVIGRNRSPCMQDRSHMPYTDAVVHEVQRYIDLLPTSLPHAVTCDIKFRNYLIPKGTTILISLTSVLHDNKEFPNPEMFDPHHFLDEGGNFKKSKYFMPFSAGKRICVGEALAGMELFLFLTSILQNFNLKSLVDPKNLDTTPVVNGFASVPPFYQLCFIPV
Sequence of CYP2D6 (P10635 whole entry): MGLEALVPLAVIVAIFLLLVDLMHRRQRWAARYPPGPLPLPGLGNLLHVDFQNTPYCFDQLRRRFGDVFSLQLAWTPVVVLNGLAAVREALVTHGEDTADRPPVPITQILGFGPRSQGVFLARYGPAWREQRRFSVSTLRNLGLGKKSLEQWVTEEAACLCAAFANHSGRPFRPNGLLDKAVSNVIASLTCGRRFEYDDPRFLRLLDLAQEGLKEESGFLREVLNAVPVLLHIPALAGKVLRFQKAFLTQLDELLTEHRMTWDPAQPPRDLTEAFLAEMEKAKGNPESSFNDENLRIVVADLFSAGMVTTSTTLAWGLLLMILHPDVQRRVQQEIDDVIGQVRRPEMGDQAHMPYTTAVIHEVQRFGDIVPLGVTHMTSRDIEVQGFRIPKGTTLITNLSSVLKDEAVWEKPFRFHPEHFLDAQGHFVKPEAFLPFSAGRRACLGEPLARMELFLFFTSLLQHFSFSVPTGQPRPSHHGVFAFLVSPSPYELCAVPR
Sequence of CYP1A2 (P05177 whole entry): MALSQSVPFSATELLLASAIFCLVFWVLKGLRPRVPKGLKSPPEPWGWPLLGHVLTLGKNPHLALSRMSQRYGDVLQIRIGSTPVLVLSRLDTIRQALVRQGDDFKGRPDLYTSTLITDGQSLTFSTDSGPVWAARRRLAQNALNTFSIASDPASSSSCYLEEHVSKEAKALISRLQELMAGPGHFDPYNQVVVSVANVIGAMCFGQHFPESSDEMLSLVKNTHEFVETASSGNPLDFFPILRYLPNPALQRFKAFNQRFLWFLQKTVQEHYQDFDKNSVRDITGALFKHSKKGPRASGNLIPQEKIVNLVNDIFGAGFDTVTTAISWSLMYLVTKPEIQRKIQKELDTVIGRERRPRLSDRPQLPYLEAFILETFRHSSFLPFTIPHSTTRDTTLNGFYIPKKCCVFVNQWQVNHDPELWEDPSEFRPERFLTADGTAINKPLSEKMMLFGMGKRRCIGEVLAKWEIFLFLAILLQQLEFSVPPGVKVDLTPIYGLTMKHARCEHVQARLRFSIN
Sequence of CYP2C19 (P33261 whole entry): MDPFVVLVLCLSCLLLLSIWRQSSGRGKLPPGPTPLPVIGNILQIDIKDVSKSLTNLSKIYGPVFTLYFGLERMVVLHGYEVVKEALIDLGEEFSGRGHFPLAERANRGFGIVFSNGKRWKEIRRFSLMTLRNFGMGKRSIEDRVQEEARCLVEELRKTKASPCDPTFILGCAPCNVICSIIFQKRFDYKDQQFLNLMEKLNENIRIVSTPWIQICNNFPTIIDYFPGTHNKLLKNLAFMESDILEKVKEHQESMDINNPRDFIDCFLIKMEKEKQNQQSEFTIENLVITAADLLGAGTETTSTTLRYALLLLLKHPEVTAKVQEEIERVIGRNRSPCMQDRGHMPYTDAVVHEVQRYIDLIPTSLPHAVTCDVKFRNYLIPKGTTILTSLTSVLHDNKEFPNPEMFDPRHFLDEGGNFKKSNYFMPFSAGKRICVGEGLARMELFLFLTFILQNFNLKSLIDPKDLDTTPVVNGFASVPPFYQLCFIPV

For CN1CCCC1CCNC(=O)c1cn2c3c(c(N4CCC(c5cnccn5)C4)c(F)cc3c1=O)Oc1cc3ccccc3cc1-2 (stereo not drawn) [CX-3543], the “inhibition of CYP1A2” value (CYP1A2) was “No significant inhibition”, the “inhibition of CYP2C19” value (CYP2C19) was “No significant inhibition” and the “inhibition of CYP2C9” value (CYP2C9) was “No significant inhibition”. The IC50 (CYP2C9; isoform 2C9, substrate Diclofenac) was > 10 µM, the “inhibition of CYP2D6” value (CYP2D6) was “No significant inhibition” and the IC50 (CYP2D6; isoform 2D6, substrate Dextromethorphan) was > 25 µM. For the same compound, the “range in which only minor and partial inhibition of CYP3A4 was evident” value (CYP3A4) was 1 to 3 µM, the IC50 (CYP3A4; isoform 3A4, substrate Midazolam) was 1.4 µM and the IC50 (CYP3A4; isoform 3A4, substrate Testosterone) was 3.3 µM. For the same compound, the “lowering of c-Myc mRNA expression relative to control (18s rRNA) in tumor tissue” value (c-MYC mRNA; 20 mg/kg group) was 85%, the “c-Myc mRNA expression relative to control (18s rRNA) in tumor tissue” value (c-MYC mRNA; 10, 15 and 20 mg/kg) was “dose-dependent lowering” and the AUC(0-inf) ([1]; beagle, dog, plasma, female, 1.2 mg/kg IV infusion, Dose 1, read-out: Mean AUC(0-inf)) was 386 ng·h/mL. The AUC(0-inf) ([1]; beagle, dog, plasma, male, 1.2 mg/kg IV infusion, Dose 1, read-out: Mean AUC(0-inf)) was 317 ng·h/mL, the “Dose 5 to Dose 1 ratio for AUC(0-24)” value ([1]; female) was 1.1 and the “AUC(0-inf)” value ([1]; female, Dose 1, 1.2 mg/kg IV, mean) was 386.3 ng·h/mL. For the same compound, the “Accumulation Ratio” value ([1]; female) was 1.1, the Tmax ([1]; female, beagle, dog, plasma, Dose 1, 1.2 mg/kg IV) was 0.67 h and the Tmax ([1]; female, beagle, dog, plasma, Dose 5, 1.2 mg/kg IV) was 1 h. The AUC(0-t) ([1]; female, beagle, dog, plasma, female, 1.2 mg/kg IV infusion, Dose 1, read-out: Mean AUC(0-24)) was 381 ng·h/mL, the Cmax ([1]; female, beagle, dog, plasma, female, 1.2 mg/kg IV infusion, Dose 1, read-out: Mean Cmax) was 139 ng/mL and the half-life ([1]; female, beagle, dog, plasma, female, 1.2 mg/kg IV infusion, Dose 1, read-out: mean terminal half-life (converted)) was 3.8 h. The AUC(0-t) ([1]; female, beagle, dog, plasma, female, 1.2 mg/kg once daily, Dose 5, read-out: Mean AUC(0-24)) was 444 ng·h/mL, the Cmax ([1]; female, beagle, dog, plasma, female, 1.2 mg/kg once daily, Dose 5, read-out: mean Cmax) was 145 ng/mL and the Cmax ([1]; female, beagle, dog, plasma, female, Dose 1, 1.2 mg/kg IV once daily, mean, read-out: Cmax) was 139 ng/mL. It also gave a half-life ([1]; female, beagle, dog, plasma, female, Dose 1, 1.2 mg/kg IV, harmonic mean, read-out: T1/2 (converted)) of 3.8 h, an AUC(0-t) ([1]; female, beagle, dog, plasma, female, Dose 1, 1.2 mg/kg IV, mean, read-out: AUC(0-24)) of 381 ng·h/mL and a Cmax ([1]; female, beagle, dog, plasma, female, Dose 5, 1.2 mg/kg IV once daily for 5 days, mean, read-out: Cmax) of 145 ng/mL. The half-life ([1]; female, beagle, dog, plasma, female, Dose 5, 1.2 mg/kg IV, harmonic mean, read-out: T1/2 (converted)) was 5.2 h, the AUC(0-t) ([1]; female, beagle, dog, plasma, female, Dose 5, 1.2 mg/kg IV, mean, read-out: AUC(0-24)) was 444 ng·h/mL and the half-life ([1]; female, beagle, dog, plasma, female, Dose 5, read-out: mean terminal half-life (converted)) was 5.2 h. The “Dose 5 to Dose 1 ratio for AUC(0-24)” value ([1]; male) was 1.2, the “AUC(0-inf)” value ([1]; male, Dose 1, 1.2 mg/kg IV, mean) was 316.9 ng·h/mL and the “Accumulation Ratio” value ([1]; male) was 1.2. For the same compound, the Tmax ([1]; male, beagle, dog, plasma, Dose 1, 1.2 mg/kg IV) was 0.67 h, the Tmax ([1]; male, beagle, dog, plasma, Dose 5, 1.2 mg/kg IV) was 1 h and the AUC(0-t) ([1]; male, beagle, dog, plasma, male, 1.2 mg/kg IV infusion, Dose 1, read-out: Mean AUC(0-24)) was 314 ng·h/mL. It also gave a Cmax ([1]; male, beagle, dog, plasma, male, 1.2 mg/kg IV infusion, Dose 1, read-out: Mean Cmax) of 108 ng/mL, a half-life ([1]; male, beagle, dog, plasma, male, 1.2 mg/kg IV infusion, Dose 1, read-out: mean terminal half-life (converted)) of 3.2 h and an AUC(0-t) ([1]; male, beagle, dog, plasma, male, 1.2 mg/kg once daily, Dose 5, read-out: Mean AUC(0-24)) of 363 ng·h/mL. It also gave a Cmax ([1]; male, beagle, dog, plasma, male, 1.2 mg/kg once daily, Dose 5, read-out: mean Cmax) of 126 ng/mL, a Cmax ([1]; male, beagle, dog, plasma, male, Dose 1, 1.2 mg/kg IV once daily, mean, read-out: Cmax) of 108 ng/mL and a half-life ([1]; male, beagle, dog, plasma, male, Dose 1, 1.2 mg/kg IV, harmonic mean, read-out: T1/2 (converted)) of 3.2 h. It also gave an AUC(0-t) ([1]; male, beagle, dog, plasma, male, Dose 1, 1.2 mg/kg IV, mean, read-out: AUC(0-24)) of 314 ng·h/mL, a Cmax ([1]; male, beagle, dog, plasma, male, Dose 5, 1.2 mg/kg IV once daily for 5 days, mean, read-out: Cmax) of 126 ng/mL and a half-life ([1]; male, beagle, dog, plasma, male, Dose 5, 1.2 mg/kg IV, harmonic mean, read-out: T1/2 (converted)) of 5.2 h. The AUC(0-t) ([1]; male, beagle, dog, plasma, male, Dose 5, 1.2 mg/kg IV, mean, read-out: AUC(0-24)) was 363 ng·h/mL, the half-life ([1]; male, beagle, dog, plasma, male, Dose 5, read-out: mean terminal half-life (converted)) was 5.2 h and the solubility (Formulated solubility) was ~20 mg/mL (≈ 33.1 mM).
